Results published in EP3964511A1, “BIOORTHOGONAL CHOLESTEROL PROBE AND USES THEREOF” (Universidad del País Vasco/Euskal Herriko Unibertsitatea, priority 2020, dated 2022).

Assays:
[1] = system: HeLa cells; assay: Competition assay of cellular uptake against natural chol; format: cell-based, Human; conditions: probe fixed at 5 µM, chol 0-1 mM, 1 h co-incubation; result stated at 500 µM chol
Description: A competition assay was designed to test chol-N3 and fluorescently pre-labeled chol-N3 uptake by cells. HeLa cells were seeded onto coverslips in DMEM supplemented with 10% FBS, and co-incubated with a fixed concentration of chol-N3 (5 µM) or with chol-N3 (5 µM) labeled with 10 µM AF 488-DBCO and an increasing concentration of natural chol (ranging from 0 to 1 mM) added externally to the cells. After 1h co-incubation of cells with the mixture, cells were stained in vivo with 25 µM AF 488-DBCO for 60 min, counterstained with DAPI, fixed, and imaged using a ZEISS apotome. Alternaltively, HeLa cells were treated with 5 µM Bodipy-chol in DMEM supplemented with 10% FBS and co-incubated with increasing concentration of natural chol (0-1mM) for 1h. Cells were fixed, and counterstained with DAPI.
Human cervix adenocarcinoma HeLa cells and human bone marrow neuroblast SH-SY5Y cells were obtained from ATCC. HeLa cells were maintained in DMEM (Dulbecco's modified Eagle's medium) supplemented with 10% FBS, 2 mM Glutamax, 100 units/ml penicillin, and 100 µg/ml streptomycin (Life Technologies) at 37 °C with 5% CO2. SH-SY5Y cells were maintained in DMEM/F12 (F12 and Dulbecco's modified Eagle's medium) supplemented with 10% FBS and 1% penicillin and streptomycin. (Life Technologies) at 37°C with 5% CO2.

[2] = In vitro laurdan generalized polarization (GP) in LUVs; format: physicochemical; conditions: POPC LUVs with 10% sterol (labeled adduct 90%:8%:2%), compared with chol
Description: Large unilamellar vesicles (LUV) composed of POPC:chol (90%:10%), POPC:chol-N3 (90%:10%) or POPC/chol-N3/chol-N3-AF 647-DBCO (90%:8%:2%) were prepared following the extrusion method described by Cebecauer M. et al. (Membrane Lipid Nanodomains. Chem Rev, 2018). Laurdan was added in the organic phase before solvent evaporation. Laurdan labeled liposomes at a concentration of 30 µM were kept under continuous stirring, and the determination of GP profiles at different temperatures was performed. All fluorescence measurements were made using an SLM Aminco series 2 (Spectronic Instruments, Rochester, NY) spectrofluorimeter as previously described (Sheng R. et al. Nat Commun 3, 1249, 2012). To quantify changes in the Laurdan emission spectrum, generalized polarization (GP) values were calculated as follow: GP = (IB-IR)/(IB+IR), where IB (at 440 nm) and IR (at 490 nm) correspond to the intensities at the blue and red edges of the emission maxima, respectively (Bernardino de la Serna J et al., J Biol Chem 279, 40715-40722, 2004 and Sezgin E et al., Nat Rev Mol Cell Biol 18, 361-374, 2017).

CC(CCCN=[N+]=[N-])C1CCC2C3CC=C4CC(O)CCC4(C)C3CCC12C (centres unmarked) [chol-N3, 17-(5-azidopentan-2-yl)-10,13-dimethyl-2,3,4,7,8,9,10,11,12,13,14,15,16,17-tetradecahydro-1H-cyclopenta[a]phenanthren-3-ol]
uptake in the presence of increasing extracellular chol [1]: virtually abolished
membrane order (laurdan generalized polarization, GP) versus temperature [2]: same membrane order behavior irrespective of the chol analog used
